Experiments:
[1] = target: Cytochrome P450 2C19 (Homo sapiens, UniProt P33261); conditions: bti-tn-5b1-4
[2] = target: Cytochrome P450 2C9 (Homo sapiens, UniProt P11712); conditions: bti-tn-5b1-4
[3] = target: Cytochrome P450 2D6 (Homo sapiens, UniProt P10635); conditions: bti-tn-5b1-4
[4] = target: Cytochrome P450 3A4 (Homo sapiens, UniProt P08684); conditions: bti-tn-5b1-4
[5] = target: T1, Estrogen receptor (Homo sapiens, UniProt P03372); conditions: sf9
T1 sequence (P03372 whole entry): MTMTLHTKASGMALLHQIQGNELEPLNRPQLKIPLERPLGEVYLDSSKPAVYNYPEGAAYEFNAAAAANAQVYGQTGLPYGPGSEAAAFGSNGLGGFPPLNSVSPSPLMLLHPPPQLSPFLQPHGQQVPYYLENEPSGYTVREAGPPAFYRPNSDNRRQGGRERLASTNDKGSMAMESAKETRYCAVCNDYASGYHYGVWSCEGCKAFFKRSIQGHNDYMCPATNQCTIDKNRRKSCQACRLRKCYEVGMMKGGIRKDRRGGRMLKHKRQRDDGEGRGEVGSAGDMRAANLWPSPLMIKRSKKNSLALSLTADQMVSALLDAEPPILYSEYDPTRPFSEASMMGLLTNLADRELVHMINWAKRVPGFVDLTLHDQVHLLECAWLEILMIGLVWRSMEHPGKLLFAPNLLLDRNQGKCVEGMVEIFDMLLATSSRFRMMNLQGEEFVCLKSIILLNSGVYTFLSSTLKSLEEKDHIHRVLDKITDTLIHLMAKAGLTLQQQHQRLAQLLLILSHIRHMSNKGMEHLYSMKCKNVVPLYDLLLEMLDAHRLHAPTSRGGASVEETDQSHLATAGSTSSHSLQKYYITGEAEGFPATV

[6] = target: T2, Cytochrome P450 1A2 (Homo sapiens, UniProt P05177); conditions: bti-tn-5b1-4
T2 sequence (P05177 whole entry): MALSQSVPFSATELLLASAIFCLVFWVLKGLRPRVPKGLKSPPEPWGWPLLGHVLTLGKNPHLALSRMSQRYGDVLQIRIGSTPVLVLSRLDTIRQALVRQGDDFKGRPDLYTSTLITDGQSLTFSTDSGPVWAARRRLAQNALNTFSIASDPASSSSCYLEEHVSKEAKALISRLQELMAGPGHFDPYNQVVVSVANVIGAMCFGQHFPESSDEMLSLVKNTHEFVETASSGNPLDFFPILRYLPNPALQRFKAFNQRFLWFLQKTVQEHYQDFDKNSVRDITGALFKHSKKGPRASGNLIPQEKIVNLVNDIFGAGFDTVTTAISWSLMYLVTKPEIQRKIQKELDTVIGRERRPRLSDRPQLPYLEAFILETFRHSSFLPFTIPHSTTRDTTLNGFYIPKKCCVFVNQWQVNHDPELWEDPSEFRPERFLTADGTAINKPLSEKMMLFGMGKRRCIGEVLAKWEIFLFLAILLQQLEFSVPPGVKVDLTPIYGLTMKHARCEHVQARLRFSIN

[7] = target: T3, Glucocorticoid receptor (Homo sapiens, UniProt P04150); conditions: hela s3
T3 sequence (P04150 whole entry): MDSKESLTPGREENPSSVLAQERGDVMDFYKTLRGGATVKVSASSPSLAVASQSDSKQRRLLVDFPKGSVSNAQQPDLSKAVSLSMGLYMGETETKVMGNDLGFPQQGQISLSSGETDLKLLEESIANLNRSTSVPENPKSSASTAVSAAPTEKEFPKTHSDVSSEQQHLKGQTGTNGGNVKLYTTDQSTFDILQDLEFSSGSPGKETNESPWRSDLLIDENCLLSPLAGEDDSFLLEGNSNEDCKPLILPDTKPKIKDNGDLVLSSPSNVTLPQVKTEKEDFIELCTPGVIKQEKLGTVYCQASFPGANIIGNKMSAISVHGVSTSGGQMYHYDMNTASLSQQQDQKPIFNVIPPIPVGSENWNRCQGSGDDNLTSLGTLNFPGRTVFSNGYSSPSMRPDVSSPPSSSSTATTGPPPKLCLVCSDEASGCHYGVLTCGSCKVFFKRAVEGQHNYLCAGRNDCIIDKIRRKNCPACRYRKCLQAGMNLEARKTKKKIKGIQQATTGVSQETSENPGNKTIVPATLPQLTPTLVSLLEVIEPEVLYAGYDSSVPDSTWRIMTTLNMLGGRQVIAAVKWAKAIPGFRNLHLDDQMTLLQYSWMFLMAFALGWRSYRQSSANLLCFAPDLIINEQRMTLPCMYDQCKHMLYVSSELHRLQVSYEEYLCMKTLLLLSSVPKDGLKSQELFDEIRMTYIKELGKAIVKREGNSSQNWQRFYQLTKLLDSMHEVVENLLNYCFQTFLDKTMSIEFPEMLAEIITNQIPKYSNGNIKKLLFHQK

[8] = target: Voltage-gated inwardly rectifying potassium channel KCNH2 (Homo sapiens, UniProt Q12809); conditions: hek293
Sequence of Voltage-gated inwardly rectifying potassium channel KCNH2 (Q12809 whole entry): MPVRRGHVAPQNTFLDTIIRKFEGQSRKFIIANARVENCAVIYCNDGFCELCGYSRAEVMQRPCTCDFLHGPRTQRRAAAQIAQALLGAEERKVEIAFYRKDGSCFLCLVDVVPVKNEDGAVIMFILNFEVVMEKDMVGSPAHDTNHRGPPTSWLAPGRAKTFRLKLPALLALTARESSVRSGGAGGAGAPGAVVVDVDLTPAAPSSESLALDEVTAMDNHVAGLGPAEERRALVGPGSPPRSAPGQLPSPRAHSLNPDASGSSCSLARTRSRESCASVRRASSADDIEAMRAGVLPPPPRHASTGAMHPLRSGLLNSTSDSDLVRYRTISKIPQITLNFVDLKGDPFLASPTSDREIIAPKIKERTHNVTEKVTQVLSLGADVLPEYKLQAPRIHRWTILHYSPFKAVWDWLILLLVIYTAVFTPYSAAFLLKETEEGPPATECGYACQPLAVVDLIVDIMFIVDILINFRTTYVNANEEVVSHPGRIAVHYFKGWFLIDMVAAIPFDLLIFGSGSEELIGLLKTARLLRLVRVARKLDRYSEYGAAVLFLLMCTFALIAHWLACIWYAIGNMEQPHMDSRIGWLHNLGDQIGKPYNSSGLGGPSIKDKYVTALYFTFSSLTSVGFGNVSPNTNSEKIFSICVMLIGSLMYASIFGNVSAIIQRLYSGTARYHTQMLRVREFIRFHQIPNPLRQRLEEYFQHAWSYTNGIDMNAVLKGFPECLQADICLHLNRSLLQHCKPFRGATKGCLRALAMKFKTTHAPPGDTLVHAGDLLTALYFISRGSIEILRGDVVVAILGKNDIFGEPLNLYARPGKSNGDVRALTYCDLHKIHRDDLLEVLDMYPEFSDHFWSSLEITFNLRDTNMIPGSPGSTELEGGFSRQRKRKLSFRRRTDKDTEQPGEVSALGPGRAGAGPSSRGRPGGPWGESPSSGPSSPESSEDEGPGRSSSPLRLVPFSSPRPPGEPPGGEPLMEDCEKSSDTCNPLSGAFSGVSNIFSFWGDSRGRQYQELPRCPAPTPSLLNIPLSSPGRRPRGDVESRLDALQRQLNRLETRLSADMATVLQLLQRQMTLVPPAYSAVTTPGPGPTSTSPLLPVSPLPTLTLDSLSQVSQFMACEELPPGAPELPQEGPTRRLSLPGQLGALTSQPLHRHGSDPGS

[9] = target: Estrogen receptor beta (Homo sapiens, UniProt Q92731); conditions: sf9
Sequence of Estrogen receptor beta (Q92731 whole entry): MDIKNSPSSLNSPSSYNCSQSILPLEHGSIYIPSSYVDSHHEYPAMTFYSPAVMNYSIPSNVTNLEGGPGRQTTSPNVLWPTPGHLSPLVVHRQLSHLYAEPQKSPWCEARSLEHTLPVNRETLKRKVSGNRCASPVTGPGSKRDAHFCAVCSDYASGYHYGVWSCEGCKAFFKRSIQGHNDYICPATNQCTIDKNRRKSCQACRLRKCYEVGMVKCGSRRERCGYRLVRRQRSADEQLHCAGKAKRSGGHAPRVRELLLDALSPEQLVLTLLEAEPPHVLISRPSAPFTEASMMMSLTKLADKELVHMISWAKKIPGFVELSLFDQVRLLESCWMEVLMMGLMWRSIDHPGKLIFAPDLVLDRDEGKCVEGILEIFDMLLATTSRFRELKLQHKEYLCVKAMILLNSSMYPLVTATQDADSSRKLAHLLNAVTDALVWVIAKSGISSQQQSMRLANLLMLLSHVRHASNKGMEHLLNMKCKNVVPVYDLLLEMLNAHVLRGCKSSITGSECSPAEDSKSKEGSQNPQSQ
Also: in other assays of this panel Not Active means under 50% inhibition at 10 µM.

Sequence of Cytochrome P450 2D6 (P10635 whole entry): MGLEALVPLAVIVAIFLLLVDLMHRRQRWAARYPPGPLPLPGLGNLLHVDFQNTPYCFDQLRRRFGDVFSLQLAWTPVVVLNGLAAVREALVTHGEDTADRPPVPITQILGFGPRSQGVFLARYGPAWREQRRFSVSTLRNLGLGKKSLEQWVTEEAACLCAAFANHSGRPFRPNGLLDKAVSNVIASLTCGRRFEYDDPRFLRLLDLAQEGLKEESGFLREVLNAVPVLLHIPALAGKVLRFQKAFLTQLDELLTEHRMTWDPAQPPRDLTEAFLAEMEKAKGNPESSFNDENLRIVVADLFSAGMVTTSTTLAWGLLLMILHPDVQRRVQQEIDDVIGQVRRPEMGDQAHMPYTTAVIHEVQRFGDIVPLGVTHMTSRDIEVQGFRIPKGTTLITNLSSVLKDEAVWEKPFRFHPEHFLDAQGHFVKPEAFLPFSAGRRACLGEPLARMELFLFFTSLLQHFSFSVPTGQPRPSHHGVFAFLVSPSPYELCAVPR
Sequence of Cytochrome P450 2C9 (P11712 whole entry): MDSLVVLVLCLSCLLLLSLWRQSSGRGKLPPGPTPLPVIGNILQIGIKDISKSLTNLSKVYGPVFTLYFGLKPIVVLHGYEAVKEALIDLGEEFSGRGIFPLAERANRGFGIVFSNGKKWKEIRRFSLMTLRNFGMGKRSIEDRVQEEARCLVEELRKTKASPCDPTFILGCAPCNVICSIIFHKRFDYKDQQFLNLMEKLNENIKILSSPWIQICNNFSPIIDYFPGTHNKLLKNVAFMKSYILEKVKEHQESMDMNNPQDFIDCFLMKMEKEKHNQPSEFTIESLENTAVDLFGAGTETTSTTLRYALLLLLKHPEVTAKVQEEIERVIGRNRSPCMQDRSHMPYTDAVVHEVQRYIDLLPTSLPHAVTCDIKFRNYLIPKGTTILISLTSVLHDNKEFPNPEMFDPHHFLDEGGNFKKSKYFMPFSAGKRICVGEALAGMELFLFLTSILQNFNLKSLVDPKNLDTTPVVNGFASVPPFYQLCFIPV
Sequence of Cytochrome P450 2C19 (P33261 whole entry): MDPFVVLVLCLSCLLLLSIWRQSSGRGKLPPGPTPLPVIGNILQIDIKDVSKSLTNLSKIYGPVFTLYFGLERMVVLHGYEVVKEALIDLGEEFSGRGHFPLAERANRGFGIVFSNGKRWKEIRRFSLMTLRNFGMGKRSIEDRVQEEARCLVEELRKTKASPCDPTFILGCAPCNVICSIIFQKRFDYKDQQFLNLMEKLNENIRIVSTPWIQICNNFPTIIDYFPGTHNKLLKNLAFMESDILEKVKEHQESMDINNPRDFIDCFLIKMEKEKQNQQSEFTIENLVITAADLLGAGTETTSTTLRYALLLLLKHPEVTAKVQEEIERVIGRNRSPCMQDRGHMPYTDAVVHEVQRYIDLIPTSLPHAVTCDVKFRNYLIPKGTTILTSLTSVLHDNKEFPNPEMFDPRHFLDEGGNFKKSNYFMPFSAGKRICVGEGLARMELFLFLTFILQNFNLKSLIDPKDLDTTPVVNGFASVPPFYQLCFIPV
Sequence of Cytochrome P450 3A4 (P08684 whole entry): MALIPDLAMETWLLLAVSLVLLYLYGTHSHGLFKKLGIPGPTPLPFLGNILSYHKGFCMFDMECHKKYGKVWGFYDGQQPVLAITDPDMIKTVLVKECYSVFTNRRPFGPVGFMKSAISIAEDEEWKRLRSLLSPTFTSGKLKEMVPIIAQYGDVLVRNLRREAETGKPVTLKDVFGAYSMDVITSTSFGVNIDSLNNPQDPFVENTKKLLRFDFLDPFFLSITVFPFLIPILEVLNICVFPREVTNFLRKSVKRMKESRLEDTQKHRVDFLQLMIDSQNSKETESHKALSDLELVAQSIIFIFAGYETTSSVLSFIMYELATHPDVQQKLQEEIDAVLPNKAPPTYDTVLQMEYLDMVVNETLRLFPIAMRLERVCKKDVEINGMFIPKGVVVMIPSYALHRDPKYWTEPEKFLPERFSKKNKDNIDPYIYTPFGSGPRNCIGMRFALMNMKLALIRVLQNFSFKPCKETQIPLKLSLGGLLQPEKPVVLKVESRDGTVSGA

CC[C@H]1OC(=O)[C@H](C)[C@@H](O[C@H]2C[C@@](C)(OC)[C@@H](O)[C@H](C)O2)[C@H](C)[C@@H](O[C@@H]2O[C@H](C)C[C@H](N(C)C)[C@H]2O)[C@](C)(O)C[C@@H](C)/C(=N\OCOCCOC)[C@H](C)[C@@H](O)[C@]1(C)O [ROXITHROMYCIN]
Not Active: IC50 [1] | Ki [1] | IC50 [2] | Ki [2] | IC50 [3] | Ki [3] | IC50 [4] | Ki [4] | IC50 [5] | IC50 [6] | Ki [6] | IC50 [7] | IC50 [8] | Ki [8]

CSc1ccc2c(c1)N(CCC1CCCCN1C)c1ccccc1S2 (configuration not stated) [THIORIDAZINE]
Not Active: IC50 [2] | Ki [2] | IC50 [4] | Ki [4] | IC50 [5] | IC50 [7]

NC(CO)(CO)CO [TROMETHAMINE]
Not Active: IC50 [1] | Ki [1] | IC50 [2] | Ki [2] | IC50 [3] | Ki [3] | IC50 [4] | Ki [4] | IC50 [5] | IC50 [6] | Ki [6] | IC50 [7] | IC50 [8] | Ki [8]

CCOC(=O)[C@H](CCc1ccccc1)N[C@@H](C)C(=O)N1[C@H](C(=O)O)C[C@@H]2CCC[C@@H]21
Not Active: IC50 [1] | Ki [1] | IC50 [2] | Ki [2] | IC50 [3] | Ki [3] | IC50 [5] | IC50 [9] | IC50 [6] | Ki [6] | IC50 [7] | IC50 [8] | Ki [8]

Clc1ccccc1C(c1ccccc1)(c1ccccc1)n1ccnc1 [CLOTRIMAZOLE]
Not Active: IC50 [3] | Ki [3] | IC50 [5] | IC50 [9] | IC50 [6] | Ki [6] | IC50 [8] | Ki [8]

COC(=O)C1=C(C)NC(C)=C(C(=O)OC)C1c1ccccc1[N+](=O)[O-] [NIFEDIPINE]
Not Active: IC50 [5] | IC50 [9] | IC50 [7]

COS(C)(=O)=O [METHANESULFONIC ACID METHYL ESTER]
Not Active: IC50 [1] | Ki [1] | IC50 [2] | Ki [2] | IC50 [3] | Ki [3] | IC50 [4] | Ki [4] | IC50 [5] | IC50 [6] | Ki [6] | IC50 [7] | IC50 [8] | Ki [8]

Cc1ccc(C(=O)C(C)CN2CCCCC2)cc1 (configuration not stated) [TOLPERISONE]
Not Active: IC50 [1] | Ki [1] | IC50 [2] | Ki [2] | IC50 [3] | Ki [3] | IC50 [4] | Ki [4] | IC50 [5] | IC50 [9] | IC50 [6] | Ki [6] | IC50 [8] | Ki [8]

CC(=O)[C@H]1CC[C@H]2[C@@H]3CCC4=CC(=O)CC[C@]4(C)[C@H]3CC[C@]12C [PROGESTERONE]
Not Active: IC50 [1] | Ki [1] | IC50 [2] | Ki [2] | IC50 [3] | Ki [3] | IC50 [4] | Ki [4] | IC50 [5] | IC50 [9] | IC50 [6] | Ki [6]

C[C@](N)(Cc1ccc(O)cc1)C(=O)O [METYROSINE]
Not Active: IC50 [1] | Ki [1] | IC50 [2] | Ki [2] | IC50 [3] | Ki [3] | IC50 [4] | Ki [4] | IC50 [5] | IC50 [6] | Ki [6] | IC50 [7] | IC50 [8] | Ki [8]

CC1=C(/C=C/C(C)=C/C=C/C(C)=C\C(=O)O)C(C)(C)CCC1 [ISOTRETINOIN]
Not Active: IC50 [1] | Ki [1] | IC50 [2] | Ki [2] | IC50 [3] | Ki [3] | IC50 [4] | Ki [4] | IC50 [5] | IC50 [6] | Ki [6] | IC50 [7]

CC(=O)S[C@@H]1CC2=CC(=O)CC[C@]2(C)[C@H]2CC[C@@]3(C)[C@@H](CC[C@@]34CCC(=O)O4)[C@H]12 [SPIRONOLACTONE]
Not Active: IC50 [4] | Ki [4] | IC50 [5] | IC50 [9] | IC50 [8] | Ki [8]

c1ccc2[nH]c(-c3cscn3)nc2c1 [THIABENDAZOLE]
Not Active: IC50 [1] | Ki [1] | IC50 [2] | Ki [2] | IC50 [3] | Ki [3] | IC50 [5] | IC50 [9] | IC50 [7] | IC50 [8] | Ki [8]

COC(=O)[C@@H]1[C@H]2C[C@H]3c4[nH]c5ccccc5c4CCN3C[C@@H]2CC[C@@H]1O [YOHIMBINE]
Not Active: IC50 [5] | IC50 [9] | IC50 [8] | Ki [8]

COc1cccc(C2(O)CCCCC2CN(C)C)c1 (configuration not stated) [TRAMADOL]
Not Active: IC50 [1] | Ki [1] | IC50 [2] | Ki [2] | IC50 [3] | Ki [3] | IC50 [5] | IC50 [6] | Ki [6] | IC50 [7] | IC50 [8] | Ki [8]
